Measurements taken from patent US5242942A, “Anticonvulsant fructopyranose cyclic sulfites and sulfates” (McNeilab, Inc., priority 1992, dated 1993).

Key:
tonic extensor seizure = experiment: maximal electroshock test (MES); format: in vivo, mouse (albino male CRS-CD1); conditions: PO, mouse, 4 hr, read-out: % Block (MES Test, mouse)
Protocol: The compounds of formula (I) are particularly useful as anticonvulsant agents in mammals including humans. The anticonvulsant activity of the subject compounds was determined using a standard "maximal electroshock test" (MES). In this test, activity is indicated by a block of the […] extensor seizure caused by application of an electric shock to mice via corneal electrodes, as described by Swinyard et al. in J. Pharmacol. Expt. Ther. 1952, 106, 319, and recorded as % block. A more recent description of current anticonvulsant drug screening is given by Swinyard in Epilepsia 1978, 19, 409. The anticonvulsant activity of the compounds of this invention tested according to the Swinyard 1952 method is shown in the following Table I.
In the test, albino male CRS-CD1 mice weighing between 18-25 g were used in all experiments (obtained from Charles River). They were allowed food and water ad libitum and were used only once. The electroshock apparatus and the corneal electrodes were purchased from Wahlquist Instrument Company, Salt Lake City, Utah.
Maximal electroshock seizures were induced by the delivery of a 60 Hertz (Hz) current of 50 milliamps (mA) intensity to the mouse through corneal electrodes for 0.2 seconds as originally described by Swinyard et al. (1952). This stimulus intensity is approximately 4 to 6 times the current producing 100% tonic extensor convulsions. During the validation of the MES test, the duration of the various seizure components following maximal electroshock were measured as follows: hindleg tonic flexion was measured from the time of the application of the stimulus to the time of onset of hindleg tonic extension (i.e. when the hindlegs deviate by greater than an angle of 90° from the torso), hindleg tonic extensor was measured from the time of extensor thrust to the onset of generalized clonus, and terminal clonus was measured from the beginning to the end of bilateral rhythmic clonic jerking. Mortality was also recorded. The duration of each seizure component agreed well with the values previously reported by Tedeschi et al. in J. Pharmacol. Expt. Ther. 1955, 116, 107. The corneal electrodes were concave so that saline could be applied to the electrodes to reduce mortality. If this procedure is followed, mortality should always be less than 40% in control mice. Thus, at an electroshock stimulus of 60 Hz, 50 mA and 0.2 seconds duration, the order of convulsive components and the percentage of control animals displaying the behaviors should be as follows: tonic flexion (100%), tonic extension (100%) and clonus (100%) with less than 40% mortality.
For testing compounds, the abolition of the tonic extensor component was the endpoint. Animals were dosed orally (PO) with either vehicle or test drug and at a specified time were given a maximal electric shock through corneal electrodes blotted with saline (as described above). A minimum of 10 animals were used per group and the percentage of animals in the group without tonic hindlimb extension recorded. Determination of ED50 values (that dose of drug inhibiting 50% of the tonic extensor seizures) is shown below in Table I.

rat diuresis study = format: in vivo, rat (male Wistar); conditions: average of five animals; for Water Intake: control 15.0; for Urine Output: control 17.6
Text: Evidence for the inhibition of carbonic anhydrase by compounds of the formula (I) can also be obtained by a diuresis study, such as described by A. Weiner in Goodman and Gilman's The Pharmacological Basis of Therapeutics, 8th ed.; Goodman Gilman, A.; Rall, T. W.; Nies, A. S.; Taylor, P., Eds.; Pergamon Press: New York, 1990; pp 716-718. An increase in urine akalinity accompanied with an increase in water intake and urine output provides an indirect indication of carbonic anhydrase inhibition activity. Male Wistar rats having a weight of 250-300 g were dosed orally (PO) and housed in cages that allowed for the quantitative measure of fluid intake and urine output. Water intake and urine output were measured at 24 hours versus control, whereas urine pH, obtained via pH meter, was measured at 4 and 24 hours versus control. The results of this study, which are the average of five animals, are reported below in Table III. […] Such data is also an indication of the usefulness of the compounds of formula (I) as diuretics in the treatment of hypertension, congestive heart failure and other types of edema. The determination of suitable dosages for such compounds for the treatment of hypertension and congestive heart failure and other types of edema is within the skill of the art.

Total Acid Output = experiment: pylorus-ligated rat test, gastric antisecretory activity; format: in vivo, rat (male Charles River Sprague-Dawley derived); conditions: IP, 200 mg/kg
Protocol: The gastric antisecretory activity of the compounds shown in Table II was determined by the pylorus-ligated rat test described by Shay et al. in Gastroenterol. 1954, 26, 906. In this method, male Charles River Sprague-Dawley derived rats weighing 150-300 grams were deprived of food but not water for 18-24 hours prior to use. Water was withheld during the experiment, however. The rats were weighed, lightly anesthetized with ether and the pylorus ligated according to the method of Shay et al., supra. The treatment or vehicle control was then administered intraperitoneally (IP) or orally (PO). When administered by the IP route, the administration was done 30 minutes before ligation. When administered by the PO route, the administration was done prior to ligation (about 1/2 to 3 hours before). Rats were housed two per cage and sacrificed with carbon dioxide 3 hours after ligation. Their stomachs were removed, rinsed, and contents emptied into a graduated centrifuge tube. The tubes were centrifuged, the volume of gastric juice was recorded, and any samples obviously contaminated by feces, food or blood were eliminated. A 1 mL aliquot of gastric juice was titrated with 0.1N NaOH to a pH of 7.0-7.4. The volume of gastric juice secreted, the acid concentration, and the product of the volume times the concentration, i.e. the total amount of acid secreted, were measured. The total acid output was calculated by multiplying the volume of gastric juices collected times the hydrogen ion concentration (amount of NaOH added to a sample to reach a pH of 7.0-7.4) and dividing that value by 10. The mean value of the total acid output for a control group of rats was then subtracted from the mean value of the total acid output for the group of rats tested at the same dose. That value was then divided by the mean value of total acid output for the control group and the resulting number was multiplied by 100 to provide a Percent Inhibition value, which values are reported in Table II. The […] was determined statistically as the dose at which a 50% inhibition would be realized.

With `CNS(=O)(=O)OC[C@@]12OC[C@H]3OS(=O)(=O)O[C@H]3[C@@H]1OC(C)(C)O2` [Example 3, 2,3-O-(1-Methylethylidene)-4,5-O-sulfonyl-β-D-fructopyranose Methylsulfamate] the responders at 10 mg/kg (tonic extensor seizure) was 100%, the “Urine pH” value (rat diuresis study; 2.7 mg/kg PO, 4 hours, control 6.98) was 9.02 and the “Urine pH” value (rat diuresis study; 2.7 mg/kg PO, 24 hours, control 6.43) was 6.78. For the same molecule, the “Water Intake” value (rat diuresis study; 2.7 mg/kg PO, 24 hours) was 23.6 mL and the “Urine Output” value (rat diuresis study; 2.7 mg/kg PO, 24 hours) was 28.8 mL.

With `CCNS(=O)(=O)OC[C@@]12OC[C@H]3OS(=O)(=O)O[C@H]3[C@@H]1OC(C)(C)O2` [Example 5, 2,3-O-(1-Methylethylidene)-4,5-O-sulfonyl-β-D-fructopyranose Ethylsulfamate] the responders at 10 mg/kg (tonic extensor seizure) was 100%, the “Urine pH” value (rat diuresis study; 1.2 mg/kg PO, 4 hours, control 6.98) was 9.03 and the “Urine pH” value (rat diuresis study; 1.2 mg/kg PO, 24 hours, control 6.43) was 6.41. For the same molecule, the “Water Intake” value (rat diuresis study; 1.2 mg/kg PO, 24 hours) was 15.8 mL and the “Urine Output” value (rat diuresis study; 1.2 mg/kg PO, 24 hours) was 19.9 mL.

In the case of `CC1(C)O[C@H]2[C@@H]3OS(=O)(=O)O[C@@H]3CO[C@@]2(COS(=O)(=O)NC2CCCCCCC2)O1` [Example 11, 2,3-O-(1-Methylethylidene)-4,5-O-sulfonyl-β-D-fructopyranose Cyclooctylsulfamate], the responders at 75 mg/kg (tonic extensor seizure; 75 mg/kg) is reported as 30% and the “Percent Inhibition of Total Acid Output” value (Total Acid Output) is reported as 50%.

In the case of `CC1(C)O[C@H]2[C@@H]3OS(=O)(=O)O[C@@H]3CO[C@@]2(COS(=O)(=O)N=[N+]=[N-])O1` [Example 15, 2,3-O-(1-Methylethylidene)-4,5-O-sulfonyl-β-D-fructopyranose Azidosulfate], the responders at 35 mg/kg (tonic extensor seizure; 35 mg/kg) is reported as 100% and the “Percent Inhibition of Total Acid Output” value (Total Acid Output) is reported as 96%.

In the case of `CN(C)S(=O)(=O)OC[C@@]12OC[C@H]3OS(=O)(=O)O[C@H]3[C@@H]1OC(C)(C)O2` [Example 13, 2,3-O-(1-Methylethylidene)-4,5-O-sulfonyl-β-D-fructopyranose Dimethylsulfamate], the responders at 10 mg/kg (tonic extensor seizure) is reported as 70%, the “Urine pH” value (rat diuresis study; 2.1 mg/kg PO, 4 hours, control 6.98) is reported as 8.93 and the “Urine pH” value (rat diuresis study; 2.1 mg/kg PO, 24 hours, control 6.43) is reported as 6.81. The “Water Intake” value (rat diuresis study; 2.1 mg/kg PO, 24 hours) was 21 mL and the “Urine Output” value (rat diuresis study; 2.1 mg/kg PO, 24 hours) was 23.2 mL.

In the case of `NS(=O)(=O)OC[C@@]12OC[C@H]3OS(=O)(=O)O[C@H]3[C@@H]1OC1(CCCCC1)O2` [Example 21, 2,3-O-(Cyclohexylidene)-4,5-O-sulfonyl-β-D-fructopyranose Sulfamate], the “Percent Inhibition of Total Acid Output” value (Total Acid Output) is reported as 27%.

For `CC1(C)O[C@H]2[C@@H]3OS(=O)(=O)O[C@@H]3CO[C@@]2(COS(=O)(=O)NC2CC2)O1` [Example 9, 2,3-O-(1-Methylethylidene)-4,5-O-sulfonyl-β-D-fructopyranose Cyclopropylsulfamate], the responders at 10 mg/kg (tonic extensor seizure) was 90%, the “Urine pH” value (rat diuresis study; 2.5 mg/kg PO, 4 hours, control 6.98) was 9.02 and the “Urine pH” value (rat diuresis study; 2.5 mg/kg PO, 24 hours, control 6.43) was 7.26. For the same molecule, the “Water Intake” value (rat diuresis study; 2.5 mg/kg PO, 24 hours) was 27.8 mL, the “Urine Output” value (rat diuresis study; 2.5 mg/kg PO, 24 hours) was 33.2 mL and the “Percent Inhibition of Total Acid Output” value (Total Acid Output) was 87%.
